Data reported in patent publication US7045343B2, “Sterilization indicator test packs” (3M Innovative Properties Company, priority 1998, dated 2006).

Tested on: Bacillus stearothermophilus spores
Test: Spore outgrowth (color change) of indicators after prevacuum steam sterilization
Format: cell-based
Settings: 4-pulse prevacuum steam 121° C.
In short: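 Self-contained indicators held coated spore strips, a polypropylene microfiber barrier and a crushable inner container. That container held peptone, L-alanine, 4-methylumbelliferyl-alpha-D-glucoside and bromocresol purple at pH 7.6. Indicators sat in metal trays in a Getinge sterilizer running pulses of 0.075–0.085 bar vacuum and steam to 1.00 bar at 121° C. Incubation at 60° C followed, and yellow color at 168 hours scored spore outgrowth.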

[1] = Example 4, 50 mg/ml coating, 7–18 min

Substance	NO. GROWTH POSITIVE 168 HR [1]	NO. GROWTH POSITIVE 168 HR (Example 4, 100 mg/ml coating, 7–18 min)	NO. GROWTH POSITIVE 168 HR (Example 1, 10 mg/ml coating, 7–13 min)	NO. GROWTH POSITIVE 168 HR (Example 1, 20 mg/ml coating, 7–13 min)	NO. GROWTH POSITIVE 168 HR (Example 1, 40 mg/ml coating, 7–13 min)	NO. GROWTH POSITIVE 168 HR (Example 1, 80 mg/ml coating, 7–13 min)	NO. GROWTH POSITIVE 168 HR (Example 1, 100 mg/ml coating, 7–13 min)	GROWTH POSITIVE 168 HR (Example 3, 100 mg/ml coating, 7–15 min)
Decaglyceryl Decaoleate	31	30						
Decaglyceryl Monostearate	29		39	34	59	55	34	20
